Consider 32 molecules from PMC5490409, “Anti-Mycobacterial Evaluation of 7-Chloro-4-Aminoquinolines and Hologram Quantitative Structure–Activity Relationship (HQSAR) Modeling of Amino–Imino Tautomers” (Pharmaceuticals, 2017).

Converted amounts (≈) assume the structure as drawn.

Broadly, the viability is the share of living cells, or the viability signal relative to a control. High values mean less harm to the cells, low ones more harm to the cells.

One data set has as its system MTB wild-type H37Rv strain.
Experiment: not given
The following applies: cited from earlier work. On the set-up: method as in PMID 15591164.
For `COc1nc2ccc(Br)cc2cc1[C@@H](c1ccccc1)[C@@](O)(CCN(C)C)c1cccc2ccccc12` [bedaquiline], the MIC is no more than 0.1 µM.

A further data set concerns Mycobacterium tuberculosis wild-type H37Rv strain.
Experiment: not given
The following applies: series A lead, H37Rv; cited from earlier work.
For the molecule `NCCCCCCCCCCNc1ccnc2cc(Cl)ccc12` [A08], the MIC was 9.3 µM (≈ 3.11 µg/mL).

Still in this data set, the particulars now being: series A; –Log of MIC on M. tuberculosis; cited from earlier work.
As for `NCCCCCCCCNc1ccnc2cc(Cl)ccc12` [A07], the “pMIC (pMICExp)” value is 4.69.
For the molecule `CC(C)Nc1ccnc2cc(Cl)ccc12` [A11], the “pMIC (pMICExp)” value is 3.64.
On to `CCCCNc1ccnc2cc(Cl)ccc12` [A12], for which the “pMIC (pMICExp)” value is 4.27.
As to `Clc1ccc2c(NCCNc3ccccc3)ccnc2c1` [A05], the “pMIC (pMICExp)” value was 3.77.
As to `CCCNCCNc1ccnc2cc(Cl)ccc12` [A03], the “pMIC (pMICExp)” value is 3.42.
For `NCCCCCCCCCCNc1ccnc2cc(Cl)ccc12` [A08], the “pMIC (pMICExp)” value is reported as 5.03.
As for `CNc1ccnc2cc(Cl)ccc12` [A09], the “pMIC (pMICExp)” value is recorded as 3.28.
`ClCCCNc1ccnc2cc(Cl)ccc12` [A13]: the “pMIC (pMICExp)” value was 3.71.
Regarding `[N-]=[N+]=NCCNc1ccnc2cc(Cl)ccc12` [A02], the “pMIC (pMICExp)” value is recorded as 3.69.
As for `CCCNc1ccnc2cc(Cl)ccc12` [A10], the “pMIC (pMICExp)” value is recorded as 3.64.
For `NCCCCCCNc1ccnc2cc(Cl)ccc12` [A06], the “pMIC (pMICExp)” value is 4.05.
In the case of `ClCCNc1ccnc2cc(Cl)ccc12` [A01], the “pMIC (pMICExp)” value is listed as 4.29.

The data set is the same for the next values; noted with them: series B; –Log of MIC on M. tuberculosis; cited from earlier work.
For `Clc1ccc2c(N/N=C/c3cccc(Br)c3)ccnc2c1` [B04], the “pMIC (pMICExp)” value was 5.06.
For the molecule `Clc1ccc2c(N/N=C/c3ccc(Br)cc3)ccnc2c1` [B05], the “pMIC (pMICExp)” value is 5.16.

Still in this data set, the particulars now being: series C; –Log of MIC on M. tuberculosis; cited from earlier work.
As for `Clc1ccc2c(N/N=C/c3ccn[nH]3)ccnc2c1` [C06], the “pMIC (pMICExp)” value is given as 4.94.
In the case of `Clc1ccc2c(N/N=C/c3ccco3)ccnc2c1` [C02], the “pMIC (pMICExp)” value is recorded as 4.94.
With `Clc1ccc2c(N/N=C/c3ccccn3)ccnc2c1` [C07], the “pMIC (pMICExp)” value is 4.35.
Take `Clc1ccc2c(N/N=C/c3ccc[nH]3)ccnc2c1` [C05]: the “pMIC (pMICExp)” value is reported as 4.94.
Take `Clc1ccc2c(N/N=C/c3cccs3)ccnc2c1` [C04]: the “pMIC (pMICExp)” value is listed as 4.96.
Consider `O=[N+]([O-])c1ccc(/C=N/Nc2ccnc3cc(Cl)ccc23)s1` [C03], for which the “pMIC (pMICExp)” value was 5.43.
With `O=[N+]([O-])c1ccc(/C=N/Nc2ccnc3cc(Cl)ccc23)o1` [C01], the “pMIC (pMICExp)” value is 5.10.

System in another data set: not listed separately
Put plainly: Mosmann's MTT cell viability (cytotoxicity) assay. The following applies: mouse.
In turn, `CC[C@@H](CO)NCCN[C@@H](CC)CO` [EMB, ethambutol] registered a viability at 48 h, 2.5 µg/mL of 100%; a viability at 48 h, 25 µg/mL of 93%; a viability at 48 h, 100 µg/mL of 82%.

In a further data set the test system is Mycobacterium tuberculosis wild-type H37Rv strain (ATCC 27294). Put plainly: microplate Alamar blue assay (MABA), anti-mycobacterial activity. In kind it is cell-based. The following applies: M. tuberculosis H37Rv, MABA, read-out: MIC. Background: The colour change of resazurin is a common sign of viable cells or microbes.
As for `COc1ccc(/C=N/Nc2ccnc3cc(Cl)ccc23)cc1OC` [D06], the MIC was found to be 7.3 µM (≈ 2.5 µg/mL).
In the case of `COc1ccc(C=NNc2ccnc3cc(Cl)ccc23)c(Cl)c1O` [D09], the MIC worked out at 17.3 µM (≈ 6.27 µg/mL).
Still for that read-out and setting: the figure for `Clc1ccc2c(N/N=C/c3c(Cl)cccc3Cl)ccnc2c1` [D01] is 143 µM (≈ 50 µg/mL); for `COc1ccc(OC)c(/C=N/Nc2ccnc3cc(Cl)ccc23)c1` [D07] it is 18.3 µM (≈ 6.25 µg/mL).
In the case of `CC[C@@H](CO)NCCN[C@@H](CC)CO` [EMB, ethambutol], the MIC was determined as 15.3 µM (≈ 3.13 µg/mL).
With `Oc1ccc(C=NNc2ccnc3cc(Cl)ccc23)cc1O` [D03], the MIC came out at 319 µM (≈ 100 µg/mL).
As to `Oc1ccc(O)c(/C=N/Nc2ccnc3cc(Cl)ccc23)c1` [D04], the MIC amounted to 79.7 µM (≈ 25 µg/mL).
Still for that read-out and setting: the figure for `COc1cccc(/C=N/Nc2ccnc3cc(Cl)ccc23)c1OC` [D05] is 7.3 µM (≈ 2.5 µg/mL).
As for `Oc1cccc(/C=N/Nc2ccnc3cc(Cl)ccc23)c1O` [D02], the MIC was found to be 79.7 µM (≈ 25 µg/mL).
As for `COc1cc(/C=N/Nc2ccnc3cc(Cl)ccc23)cc(OC)c1OC` [D08], the MIC came to 16.8 µM (≈ 6.25 µg/mL).

The data set is the same for the next values; noted with them: read-out: pMIC (pMICExp).
For the molecule `COc1ccc(OC)c(/C=N/Nc2ccnc3cc(Cl)ccc23)c1` [D07], the MIC was 18.2 µM (≈ 6.22 µg/mL).

Staying with this data set, now noted: series D, –Log of MIC of Table 1, read-out: pMIC (pMICExp) (converted).
Consider `COc1ccc(/C=N/Nc2ccnc3cc(Cl)ccc23)cc1OC` [D06], for which the MIC was 7.24 µM.
Still for that read-out and setting: the figure for `COc1ccc(C=NNc2ccnc3cc(Cl)ccc23)c(Cl)c1O` [D09] is 16.2 µM; for `Clc1ccc2c(N/N=C/c3c(Cl)cccc3Cl)ccnc2c1` [D01] it is 141 µM; for `Oc1ccc(C=NNc2ccnc3cc(Cl)ccc23)cc1O` [D03] it is 316 µM.
Take `Oc1ccc(O)c(/C=N/Nc2ccnc3cc(Cl)ccc23)c1` [D04]: the MIC was 79.4 µM.
Regarding `COc1cccc(/C=N/Nc2ccnc3cc(Cl)ccc23)c1OC` [D05], the MIC was 7.24 µM.
In the case of `Oc1cccc(/C=N/Nc2ccnc3cc(Cl)ccc23)c1O` [D02], the MIC is 79.4 µM.
In the case of `COc1cc(/C=N/Nc2ccnc3cc(Cl)ccc23)cc(OC)c1OC` [D08], the MIC was 17 µM.

Another data set has as its system macrophage cell line J774 (ATCC TIB-67).
Experiment: not given
Conditions: not given
With `Clc1ccc2c(N/N=C/c3c(Cl)cccc3Cl)ccnc2c1` [D01], the “Cell Viability (%)/Dose (µg/mL) 2.5” value is “did not show a significant cytotoxic profile”.
On the same count and under the same terms, as for `Oc1ccc(O)c(/C=N/Nc2ccnc3cc(Cl)ccc23)c1` [D04], the entry is “did not show a significant cytotoxic profile”; as for `COc1cccc(/C=N/Nc2ccnc3cc(Cl)ccc23)c1OC` [D05], “did not show a significant cytotoxic profile”.

For a further data set, the system named is MTB MDR strains.
Experiment: not given
The following applies: cited from earlier work.
Take `COc1nc2ccc(Br)cc2cc1[C@@H](c1ccccc1)[C@@](O)(CCN(C)C)c1cccc2ccccc12` [bedaquiline]: the MIC is reported as no more than 0.5 µM.

System in another data set: not listed separately
The experiment in a line: in vitro. Conditions: mouse.
`COc1ccc(/C=N/Nc2ccnc3cc(Cl)ccc23)cc1OC` [D06]: the viability at 48 h, 2.5 µg/mL was determined as 65%; the viability at 48 h, 25 µg/mL was found to be 8%; the viability at 48 h, 100 µg/mL came out at 20%.
The corresponding values for `COc1ccc(C=NNc2ccnc3cc(Cl)ccc23)c(Cl)c1O` [D09] are 80%, 55% and 48%.
In turn, `Clc1ccc2c(N/N=C/c3c(Cl)cccc3Cl)ccnc2c1` [D01] displayed a viability at 48 h, 2.5 µg/mL of 100%; a viability at 48 h, 25 µg/mL of 90%; a viability at 48 h, 100 µg/mL of 86%.
Molecule `COc1ccc(OC)c(/C=N/Nc2ccnc3cc(Cl)ccc23)c1` [D07] had a viability at 48 h, 2.5 µg/mL of 40%; a viability at 48 h, 25 µg/mL of 22%; a viability at 48 h, 100 µg/mL of 47%.
`Oc1ccc(C=NNc2ccnc3cc(Cl)ccc23)cc1O` [D03] came in with a viability at 48 h, 2.5 µg/mL of 78%; a viability at 48 h, 25 µg/mL of 35%; a viability at 48 h, 100 µg/mL of 72%.
The corresponding values for `Oc1ccc(O)c(/C=N/Nc2ccnc3cc(Cl)ccc23)c1` [D04] are 100%, 100% and 70%.
In the same order, the values of `COc1cccc(/C=N/Nc2ccnc3cc(Cl)ccc23)c1OC` [D05] are 98%, 97% and 85%.
On to `Oc1cccc(/C=N/Nc2ccnc3cc(Cl)ccc23)c1O` [D02], for which the viability at 48 h, 2.5 µg/mL is 83%; the viability at 48 h, 25 µg/mL turned out to be 40%; the viability at 48 h, 100 µg/mL amounted to 83%.
`COc1cc(/C=N/Nc2ccnc3cc(Cl)ccc23)cc(OC)c1OC` [D08] gave a viability at 48 h, 2.5 µg/mL of 93%; a viability at 48 h, 25 µg/mL of 90%; a viability at 48 h, 100 µg/mL of 69%.
